# Several values for one entry are separate records, joined by “and”; a condition that tells them apart may be missing. Equal entries are not always repeated.
# Tests used:
# [1] = target: T1, Sodium-dependent serotonin transporter (Homo sapiens, UniProt P31645); assay: Binding inhibition towards human serotonin transporter
# [2] = target: T2, Sodium-dependent noradrenaline transporter (Homo sapiens, UniProt P23975); assay: Binding inhibition towards human norepinephrine transporter at 1 uM
# [3] = target: T3, Sodium-dependent dopamine transporter (Homo sapiens, UniProt Q01959); assay: Binding inhibition towards human dopamine transporter at 1 uM
# T3 sequence (Q01959 whole entry): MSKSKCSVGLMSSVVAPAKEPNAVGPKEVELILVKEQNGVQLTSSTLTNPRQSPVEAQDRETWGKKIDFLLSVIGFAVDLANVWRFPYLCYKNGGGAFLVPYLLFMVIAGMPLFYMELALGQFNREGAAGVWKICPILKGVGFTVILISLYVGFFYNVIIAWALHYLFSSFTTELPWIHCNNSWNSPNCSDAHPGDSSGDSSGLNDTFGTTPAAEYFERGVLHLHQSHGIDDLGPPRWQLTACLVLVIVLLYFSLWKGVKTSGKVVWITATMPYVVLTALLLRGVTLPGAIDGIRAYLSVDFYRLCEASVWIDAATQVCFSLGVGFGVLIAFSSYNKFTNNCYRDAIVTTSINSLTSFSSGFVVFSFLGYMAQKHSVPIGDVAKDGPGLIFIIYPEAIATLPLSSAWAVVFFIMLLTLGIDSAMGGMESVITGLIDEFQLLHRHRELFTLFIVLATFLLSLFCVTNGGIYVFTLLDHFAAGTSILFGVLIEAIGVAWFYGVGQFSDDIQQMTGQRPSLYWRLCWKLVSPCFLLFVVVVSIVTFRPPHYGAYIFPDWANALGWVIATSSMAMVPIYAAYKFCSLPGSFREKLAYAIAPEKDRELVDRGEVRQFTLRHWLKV
# [4] = target: T3, Sodium-dependent dopamine transporter; assay: Binding inhibition towards human dopamine transporter
# [5] = target: T2, Sodium-dependent noradrenaline transporter; assay: In vitro binding affinity towards human norepinephrine transporter
# [6] = target: T1, Sodium-dependent serotonin transporter; assay: In vitro binding inhibition towards human serotonin transporter
# T2 sequence (P23975 whole entry): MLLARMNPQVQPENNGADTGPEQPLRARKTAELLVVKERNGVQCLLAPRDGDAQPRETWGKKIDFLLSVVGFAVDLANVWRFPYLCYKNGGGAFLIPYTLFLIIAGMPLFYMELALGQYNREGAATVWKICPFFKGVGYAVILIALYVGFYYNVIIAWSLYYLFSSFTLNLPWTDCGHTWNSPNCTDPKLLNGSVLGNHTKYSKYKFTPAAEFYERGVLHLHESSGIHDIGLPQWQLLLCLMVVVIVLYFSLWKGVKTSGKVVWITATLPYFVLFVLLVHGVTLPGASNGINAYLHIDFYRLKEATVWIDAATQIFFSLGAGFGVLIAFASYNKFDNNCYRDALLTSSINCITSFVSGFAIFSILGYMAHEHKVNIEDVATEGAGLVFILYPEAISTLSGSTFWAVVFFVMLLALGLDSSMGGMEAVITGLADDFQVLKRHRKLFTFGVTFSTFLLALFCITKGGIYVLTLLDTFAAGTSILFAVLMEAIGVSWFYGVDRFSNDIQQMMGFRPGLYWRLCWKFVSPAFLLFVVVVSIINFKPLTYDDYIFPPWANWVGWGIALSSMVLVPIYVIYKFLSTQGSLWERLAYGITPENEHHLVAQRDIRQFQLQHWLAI
# T1 sequence (P31645 whole entry): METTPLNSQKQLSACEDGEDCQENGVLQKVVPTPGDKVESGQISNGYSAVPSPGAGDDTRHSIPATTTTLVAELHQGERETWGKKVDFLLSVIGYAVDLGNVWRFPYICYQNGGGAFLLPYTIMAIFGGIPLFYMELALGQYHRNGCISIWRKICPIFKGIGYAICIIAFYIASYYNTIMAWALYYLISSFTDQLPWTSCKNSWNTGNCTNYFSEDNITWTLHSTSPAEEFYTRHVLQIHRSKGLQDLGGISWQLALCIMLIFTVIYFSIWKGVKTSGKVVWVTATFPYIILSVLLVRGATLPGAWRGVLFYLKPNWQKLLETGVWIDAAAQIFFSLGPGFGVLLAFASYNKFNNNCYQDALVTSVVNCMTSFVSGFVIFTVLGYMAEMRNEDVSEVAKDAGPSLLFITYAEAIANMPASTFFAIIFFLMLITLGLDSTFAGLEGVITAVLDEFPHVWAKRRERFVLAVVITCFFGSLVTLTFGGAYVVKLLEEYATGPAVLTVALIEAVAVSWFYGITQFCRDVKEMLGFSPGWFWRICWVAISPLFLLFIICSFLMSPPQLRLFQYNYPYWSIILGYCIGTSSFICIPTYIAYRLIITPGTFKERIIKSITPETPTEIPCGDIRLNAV
structure (smiles),measurement,setting,value
CCn1cc([C@H]2C[C@@H]2CN(C)C)c2cc(C#N)ccc21,Ki,[1],1.8 nM
same,inhibition,[2],< 50%
same,inhibition,[3],< 50%
CN(C)C[C@@H]1C[C@@H]1c1c[nH]c2ccc(F)cc12 (stereo in doubt; 16e) [listing 1 of 2 here],Ki,[1],24 nM
CN(C)C[C@H]1C[C@@H]1c1c[nH]c2ccc(F)cc12 (racemic) [listing 1 of 2 here],inhibition,[2],< 50%
same,inhibition,[3],< 50%
CN(C)CCCc1c[nH]c2ccc(C#N)cc12,Ki,[1],2 nM
same,inhibition,[2],< 50%
same,inhibition,[3],< 50%
CN(C)C[C@H]1C[C@@H]1c1c[nH]c2ccc(F)cc12 [listing 1 of 2 here],inhibition,[2],< 50%
same,inhibition,[3],< 50%
CN(C)C[C@@H]1C[C@@H]1c1c[nH]c2ccc(F)cc12 (stereo in doubt; 16e) [listing 2 of 2 here],inhibition,[2],< 50%
same,inhibition,[3],< 50%
CN(C)C[C@H]1C[C@@H]1c1c[nH]c2ccc(F)cc12 [listing 2 of 2 here],Ki,[1],0.68 nM
CN(C)C[C@H]1C[C@@H]1c1c[nH]c2cccc(F)c12 (racemic),Ki,[1],59 nM
same,inhibition,[2],< 50%
same,inhibition,[3],< 50%
CN(C)C[C@H]1C[C@@H]1c1c[nH]c2ccc(C#N)cc12 (racemic) [listing 1 of 2 here],Ki,[1],0.56 nM
CN(C)C[C@H]1C[C@@H]1c1c[nH]c2ccc(F)cc12 (racemic) [listing 2 of 2 here],Ki,[1],2.1 nM
CN(C)C[C@H]1C[C@@H]1c1c[nH]c2cccc(C#N)c12 (racemic),Ki,[1],230 nM and 420 nM
CN(C)C[C@H]1C[C@@H]1c1cn(C)c2ccc(C#N)cc12,Ki,[1],6.5 nM
same,inhibition,[2],< 50%
same,inhibition,[3],< 50%
CN(C)C[C@@H]1C[C@@H]1c1c[nH]c2ccc(C#N)cc12 [listing 1 of 3 here],Ki,[1],17 nM
CN(C)C[C@@H]1C[C@@H]1c1c[nH]c2ccc(C#N)cc12 [listing 2 of 3 here],Ki,[1],7.1 nM
CN(C)C[C@H]1C[C@H]1c1c[nH]c2ccc(C#N)cc12,Ki,[1],5.7 nM
same,inhibition,[2],< 50%
same,inhibition,[3],< 50%
CN(C)C[C@@H]1C[C@@H]1c1c[nH]c2ccc(C#N)cc12 [listing 3 of 3 here],inhibition,[2],< 50%
same,inhibition,[3],< 50%
CN(C)CCCc1c[nH]c2ccc(F)cc12,Ki,[1],4 nM
same,inhibition,[2],< 50%
same,inhibition,[3],< 50%
CN(C)C[C@H]1C[C@@H]1c1c[nH]c2cc(F)ccc12 (racemic),Ki,[1],38 nM
same,inhibition,[2],< 50%
same,inhibition,[3],< 50%
CN(C)C[C@@H]1C[C@@H]1c1c[nH]c2ccc(F)cc12 (stereo in doubt; (-)-16e) [listing 1 of 2 here],Ki,[1],14 nM
CN(C)C[C@H]1C[C@@H]1c1c[nH]c2c(F)cccc12 (racemic),Ki,[1],10 nM
same,inhibition,[2],< 50%
same,inhibition,[3],< 50%
CN(C)C[C@H]1C[C@@H]1c1c[nH]c2ccc(C#N)cc12,Ki,[4],2100 nM
same,Ki,[5],4600 nM
same,Ki,[6],0.18 nM
CN(C)C[C@H]1C[C@H]1c1c[nH]c2ccc(F)cc12,Ki,[1],100 nM
CN(C)C[C@H]1C[C@@H]1c1c[nH]c2c(C#N)cccc12 (racemic),Ki,[1],0.58 nM
same,inhibition,[2],< 50%
same,inhibition,[3],< 50%
CN(C)C[C@@H]1C[C@H]1c1c[nH]c2ccc(C#N)cc12,Ki,[1],8.9 nM
same,inhibition,[2],< 50%
same,inhibition,[3],< 50%
CN(C)C[C@@H]1C[C@@H]1c1c[nH]c2ccc(F)cc12 (stereo in doubt; (-)-16e) [listing 2 of 2 here],inhibition,[2],< 50%
same,inhibition,[3],< 50%
CN(C)C[C@H]1C[C@@H]1c1c[nH]c2ccc(C#N)cc12 (racemic) [listing 2 of 2 here],inhibition,[2],< 50%
same,inhibition,[3],< 50%
CN(C)C[C@H]1C[C@@H]1c1c[nH]c2cc(C#N)ccc12 (racemic),Ki,[1],7.4 nM
same,inhibition,[2],< 50%
same,inhibition,[3],< 50%
CN(C)C[C@@H]1C[C@H]1c1c[nH]c2ccc(F)cc12,Ki,[1],41 nM
same,inhibition,[2],< 50%
same,inhibition,[3],< 50%

# — ChEMBL document CHEMBL1141089, “Conformationally restricted homotryptamines. 2. Indole cyclopropylmethylamines as selective serotonin reuptake inhibitors” (J Med Chem, 2005)
